Data as given in article PMC9658835, “Acetophenone-Based 3,4-Dihydropyrimidine-2(1H)-Thione as Potential Inhibitor of Tyrosinase and Ribonucleotide Reductase: Facile Synthesis, Crystal Structure, In-Vitro and In-Silico Investigations” (International Journal of Molecular Sciences, 2022).

Target: mushroom tyrosinase
Assay: mushroom tyrosinase (Sigma) enzyme inhibition assay
Type: biochemical

IC50: 1980 nM
Compound: CC(=O)c1ccc(N2C(=S)NC(C)(C)C=C2C)cc1 [compound 4, 1-(4-(4,4,6-trimethyl-2-thioxo-3,4-dihydropyrimidin-1(2H)-yl)phenyl)ethan-1-one]
